Measurements taken from patent EP4653448A1, “COMPOUND FOR RNA CAPPING AND USE THEREOF” (Guangzhou Henovcom Bioscience Co. Ltd., priority 2023, dated 2024).

Assays:
T7 RNA Polymerase = T7 RNA Polymerase (Escherichia phage T7, UniProt P00573); assay: Detection of the efficiency of mRNA capping synthesis (in vitro transcription, product yield); format: biochemical; details: 20 µL mRNA synthesis reaction system
Procedure: • 1) The plasmids were linearized and the DNA templates were purified. • 2) The mRNA was synthesized by in vitro transcription, using the capping structure prepared in the present disclosure, positive control CleanCap®AG (3'OMe) (Trilink, N-7413), negative control (uncapped mRNA) and blank control (DNase/RNase-Free water), respectively. Reaction system
The reaction was carried out at 37°C for 2 to 3 h. TURBO DNase digestion was carried out for 15 min. The mRNA was precipitated by LiCl for 30 min or more or overnight, and the mRNA precipitate was washed with 75% ethanol, dried briefly to evaporate the ethanol, and the mRNA was redissolved with RNase-Free water.
In the reaction system listed in Table 1, since the solubility of different test compounds varies in different solutions, adjustments can be made as needed. For ease of operation, the commonly used concentrations are 10 mM and 100 mM. […] If the initial concentration of the test compound is 10 mM, the dosage is 8 µL. Regardless of the initial concentration, the dosages of different test compounds were the same, and the final concentrations were also the same.
For example, when testing compounds S17 and S19, their initial concentration was 10 mM, and the addition volume was 8 µL. When testing compounds 5 and 6, their initial concentration was 100 mM, and the addition volume was 0.8 µL.
The assay was performed according to the method described in Example 20.

HEK293T cells = assay: Expression efficiency of capped luciferase mRNAs in HEK293T cells; format: cell-based; details: 6 h after transfection of capped luciferase mRNA
Procedure: • 1) HNE293T cells were cultured in DMEM medium containing 10% FBS and penicillin/streptomycin at 37°C and 5% CO2. • 2) The cultured HEK293T cells were spread in a 96-well plate with 1.25 × 10^4 cells per well. • 3) After the cells completely adhered to the wall, 0.5 µg of a mixture of mRNA sample and Polyplus jet[…] was added to each well of cells, and cultured at 37°C and 5% CO2 for 6 h. • 4) The growth medium was removed from the cells to be tested and the cells were rinsed with PBS. After centrifugation to remove PBS, 50 µL of 1x lysis buffer was added thereto, and cells and all liquid were transferred to a microcentrifuge tube, and then centrifuged at 12000 x g at 4°C for 2 min. • 5) The supernatant was transferred to a new tube. Fluorescence readings were detected using the ONE-Glo Luciferase Assay System Kit.
All test compounds, N-7413, negative control and blank control were tested under the same conditions, and some experimental results in the test results are shown in Table 3. Table 3. Relative fluorescence readings for capped mRNAs
The assay was performed according to the method described in Example 21. All test compounds, N-7413, negative control and blank control were tested under the same conditions, and some experimental results in the test results are shown in Table 5. Table 5 Relative fluorescence readings for capped mRNAs

[1] = biological target: streptavidin-coated magnetic beads (Streptomyces avidinii, UniProt P22629); assay: Biotin affinity assay (capture of capped mRNA on streptavidin beads and elution); format: binding; details: capped mRNA bound to streptavidin beads, eluted at 80°C
Procedure: • 1) S1-30nt-mRNA (mRNA capped with compound S1, with a length of 30 nt) was prepared and purified by LiCl; • 2) 500 µL of streptavidin-coated magnetic beads (2 mg) were taken, and the test tube was placed on a magnetic stand to collect the magnetic beads. The supernatant was removed and discarded, and the magnetic beads were washed; • 3) The magnetic beads were resuspended in 600 µL of TES buffer, and 5.5 µg of S1-30nt-mRNA from 1) was added to the magnetic bead resuspension and mixed well; the mixture was incubated at room temperature for one hour on a shaker or vortex mixer; • 4) The sample was placed on the magnetic stand for 5 min, and after the solution became clear, the supernatant was removed; • 5) While keeping the sample on the magnetic stand, the magnetic beads were rinsed three times with TES buffer; • 6) While keeping the sample on the magnetic stand, the magnetic beads were rinsed three times with distilled water; • 7) The deionized water was removed from the beads, and 60 µL of elution buffer heated to 80°C was added and mixed well. The mixture was heated to 80°C for 3 min in a constant-temperature metal bath, then placed on the magnetic stand for 3 min. The supernatant was aspirated as the elution product. • 8) Experimental results

[2] = test compound 4 mM, 37°C 2 to 3 h (Table 2)
[3] = 0.5 µg per well, reading of N-7413 = 1 (Table 3)

Sequence of streptavidin-coated magnetic beads (P22629 25-183): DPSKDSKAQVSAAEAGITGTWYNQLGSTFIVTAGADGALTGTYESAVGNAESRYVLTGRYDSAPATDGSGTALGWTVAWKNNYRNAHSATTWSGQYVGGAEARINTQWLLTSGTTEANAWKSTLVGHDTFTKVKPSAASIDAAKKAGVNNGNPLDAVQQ
Sequence of T7 RNA Polymerase (P00573 whole entry): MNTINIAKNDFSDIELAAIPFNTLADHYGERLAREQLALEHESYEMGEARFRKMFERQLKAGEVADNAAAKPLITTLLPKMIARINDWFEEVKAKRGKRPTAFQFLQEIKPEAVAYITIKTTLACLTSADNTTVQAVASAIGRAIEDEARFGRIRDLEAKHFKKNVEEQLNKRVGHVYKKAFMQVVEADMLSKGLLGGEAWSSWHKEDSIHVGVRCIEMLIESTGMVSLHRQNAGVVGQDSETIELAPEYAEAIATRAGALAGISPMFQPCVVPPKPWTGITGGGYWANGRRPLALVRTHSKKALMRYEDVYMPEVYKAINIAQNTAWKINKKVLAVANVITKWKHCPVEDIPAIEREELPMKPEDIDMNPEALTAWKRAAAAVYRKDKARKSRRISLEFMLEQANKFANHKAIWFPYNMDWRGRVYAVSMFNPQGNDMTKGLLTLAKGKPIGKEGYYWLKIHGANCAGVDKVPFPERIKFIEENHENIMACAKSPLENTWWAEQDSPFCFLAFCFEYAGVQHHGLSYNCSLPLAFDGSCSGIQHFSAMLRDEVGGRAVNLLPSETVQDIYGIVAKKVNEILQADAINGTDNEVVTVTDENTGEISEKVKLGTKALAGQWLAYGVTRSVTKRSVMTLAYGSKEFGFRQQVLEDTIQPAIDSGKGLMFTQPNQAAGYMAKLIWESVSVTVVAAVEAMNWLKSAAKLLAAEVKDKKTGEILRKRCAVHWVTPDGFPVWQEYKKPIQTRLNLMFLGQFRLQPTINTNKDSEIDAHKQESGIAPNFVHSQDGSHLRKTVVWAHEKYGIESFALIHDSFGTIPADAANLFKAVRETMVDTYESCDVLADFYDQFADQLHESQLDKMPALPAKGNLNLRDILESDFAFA

Molecule `CO[C@@H]1[C@H](OP(=O)([O-])OC[C@H]2O[C@@H](n3cnc4c(=O)[nH]c(N)nc43)[C@H](O)[C@@H]2O)[C@@H](COP(=O)(O)OP(=O)(O)OP(=O)(O)OC[C@H]2O[C@@H](n3c[n+](C)c4c(=O)[nH]c(N)nc43)[C@H](O)[C@@H]2OC)O[C@H]1n1cnc2c(N)ncnc21` [Compound N-7413, reference compound] has a Final product mass (T7 RNA Polymerase; method of Example 20 (Table 4)) of 122 µg, a Final product mass (T7 RNA Polymerase; [2]) of 122 µg and a Relative fluorescence reading (HEK293T cells; [3]) of 1.00. The Relative fluorescence reading (HEK293T cells; reading of N-7413 = 1 (Table 5)) was 1.00.

Molecule `CO[C@@H]1[C@H](OP(=O)(O)OC[C@H]2O[C@@H](n3cnc4c(=O)[nH]c(N)nc43)[C@H](O)[C@@H]2O)[C@@H](COP(=O)(O)OP(=O)(O)OP(=O)([O-])OC[C@H]2O[C@@H](n3c[n+](C)c4c(=O)[nH]c(N)nc43)[C@H](O)[C@@H]2CNC(=O)CCCC[C@@H]2SC[C@@H]3NC(=O)N[C@@H]32)O[C@H]1n1cnc2c(N)ncnc21` [Compound S1] has a Final product mass (T7 RNA Polymerase; [2]) of 139 µg and a Relative fluorescence reading (HEK293T cells; [3]) of 2.41.

`CO[C@@H]1[C@H](OP(=O)(O)OC[C@H]2O[C@@H](n3cnc4c(=O)[nH]c(N)nc43)[C@H](O)[C@@H]2O)[C@@H](COP(=O)(O)OP(=O)(O)OP(=O)([O-])OC[C@H]2O[C@@H](n3c[n+](C)c4c(=O)[nH]c(N)nc43)[C@H](O)[C@@H]2CNC(=O)CCCCCNC(=O)CCCC[C@@H]2SC[C@@H]3NC(=O)N[C@@H]32)O[C@H]1n1cnc2c(N)ncnc21` [Compound S3] was tested, and the Final product mass (T7 RNA Polymerase; [2]) was 137 µg, the recovery rate [1] was “above 95%” and the Relative fluorescence reading (HEK293T cells; [3]) was 2.56.

For `CO[C@@H]1[C@H](OP(=O)([O-])OC[C@H]2O[C@@H](n3cnc4c(=O)[nH]c(N)nc43)[C@H](O)[C@@H]2O)[C@@H](COP(=O)(O)OP(=O)(O)OP(=O)(O)OC[C@H]2O[C@@H](n3c[n+](C)c4c(=O)[nH]c(N)nc43)[C@H](O)[C@@H]2Cn2cc(CNC(=O)CCCC[C@@H]3SC[C@@H]4NC(=O)N[C@@H]43)nn2)O[C@H]1n1cnc2c(N)ncnc21` [Compound S41], the Final product mass (T7 RNA Polymerase; [2]) was 126 µg, the recovery rate [1] was “above 95%” and the Relative fluorescence reading (HEK293T cells; [3]) was 1.81.

With `CNc1ccccc1C(=O)NC[C@H]1[C@@H](O)[C@H](n2c[n+](C)c3c(=O)[nH]c(N)nc32)O[C@@H]1COP(=O)([O-])OP(=O)(O)OP(=O)(O)OC[C@H]1O[C@@H](n2cnc3c(N)ncnc32)[C@H](OC)[C@@H]1OP(=O)(O)OC[C@H]1O[C@@H](n2cnc3c(=O)[nH]c(N)nc32)[C@H](O)[C@@H]1O` [Compound S165] the Final product mass (T7 RNA Polymerase; [2]) was 88 µg and the Relative fluorescence reading (HEK293T cells; [3]) was 0.34.

`CNc1ccccc1C(=O)NCCCCCC(=O)NC[C@H]1[C@@H](O)[C@H](n2c[n+](C)c3c(=O)[nH]c(N)nc32)O[C@@H]1COP(=O)([O-])OP(=O)(O)OP(=O)(O)OC[C@H]1O[C@@H](n2cnc3c(N)ncnc32)[C@H](OC)[C@@H]1OP(=O)(O)OC[C@H]1O[C@@H](n2cnc3c(=O)[nH]c(N)nc32)[C@H](O)[C@@H]1O` [Compound S166] was tested, and the Final product mass (T7 RNA Polymerase; [2]) was 91 µg and the Relative fluorescence reading (HEK293T cells; [3]) was 0.87.

In the case of `CO[C@@H]1[C@H](OP(=O)([O-])OC[C@H]2O[C@@H](n3cnc4c(=O)[nH]c(N)nc43)[C@H](O)[C@@H]2O)[C@@H](COP(=O)(O)OP(=O)(O)OP(=O)(O)OC[C@H]2O[C@@H](n3c[n+](C)c4c(=O)[nH]c(N)nc43)[C@H](O)[C@@H]2NC(=O)CCCC[C@@H]2SC[C@@H]3NC(=O)N[C@@H]32)O[C@H]1n1cnc2c(N)ncnc21` [Compound S169], the Final product mass (T7 RNA Polymerase; [2]) was 131 µg, the recovery rate [1] was “above 95%” and the Relative fluorescence reading (HEK293T cells; [3]) was 1.35.

With `CO[C@@H]1[C@H](OP(=O)([O-])OC[C@H]2O[C@@H](n3cnc4c(=O)[nH]c(N)nc43)[C@H](O)[C@@H]2O)[C@@H](COP(=O)(O)OP(=O)(O)OP(=O)(O)OC[C@H]2O[C@@H](n3c[n+](C)c4c(=O)[nH]c(N)nc43)[C@H](O)[C@@H]2CC(=O)NCCNC(=O)CCCC[C@@H]2SC[C@@H]3NC(=O)N[C@@H]32)O[C@H]1n1cnc2c(N)ncnc21` [Compound S170] the Final product mass (T7 RNA Polymerase; [2]) was 96 µg, the recovery rate [1] was “above 95%” and the Relative fluorescence reading (HEK293T cells; [3]) was 1.47.
